The values below come from patent US12590127B2, “Split photoactive yellow protein complementation system and uses thereof” (PARIS SCIENCES ET LETTRES, priority 2019, dated 2026).

The subject of one data set is HEK 293T cells. As to the kind of experiment: Relative in-cell brightness of split-FAST after rapamycin-induced FRB-FKBP complementation. The class given is cell-based, human. The conditions noted are these: FIG. 4; for relative in-cell brightness (fluorescence observed) by C-terminal fragment: FRB-NFAST + FKBP-CFASTn, any of HMBR, HBR-3,5DM, HBR-30M, HBR-3,5DOM. From the text: FIGS. 4A-4D are a set of histograms showing the relative in-cell brightness of various split-FAST with different fluorogenic HBR analogs as indicated (4A: HMBR, 4B: HBR-3,5DM, 4C: HBR-30M, and 4D: HBR-3,5DOM) in function of the C-terminal fragment CFASTn (n=11, 10 or 9) and the N-terminal fragment used. The iFAST label indicates when NFAST from iFAST (i.e., the first PYP fragment according to the invention consisting of the amino acid sequence NFAST with an isoleucine at position 107 instead of a valine as set forth in SEQ ID NO: 30) was used. If absent, NFAST from FAST was used (i.e., the first PYP fragment according to the invention consisting of the amino acid sequence as set forth in SEQ ID NO: 23). CFAST11, CFAST10 and CFAST9 correspond to the second PYP fragment according to the invention consisting of the amino acid sequence as set forth in SEQ ID NO: 34, SEQ ID NO: 42 and SEQ ID NO: 43, respectively. NFAST fragments were fused to FRB and CFAST fragments were fused to FKBP. Complementation was induced by addition of rapamycin. Split-FAST fluorescence was normalized by expression level using the fluorescence of co-expressed fluorescent proteins.
HEK 293T cells were seeded in ibidi μDish microscopy dishes and 24 hours prior to imaging were co-transfected with plasmids encoding CMV-FRB-NFAST (or NFAST(V107I))-P2A-mCherry (or EGFP)) and CMV-FKBP-CFASTn (n=11, 10 or 9). The cells were imaged before and after addition of 500 nM rapamycin.

The test system of another data set is HEK293 cells. As to the kind of experiment: Photobleaching / photostability of split-FAST:HMBR in cells by confocal microscopy. The class given is cell-based, human. The conditions noted are these: 10 μM HMBR, 488 nm excitation, rapamycin-treated cells, FAST as control, FIG. 5E. The procedure: FIGS. 5A-5G illustrate the detection of rapamycin-induced FRB-FKBP dimerization with the complementation system of the invention. 5A and 5B show HEK293T cells co-expressing FKBP-NFAST and FRB-CFASTn (n=10 or 11) which were labeled with 5 μM HMBR (5A) or 10 μM HBR-3,5DOM (5B) and imaged before and after addition of 100 nM rapamycin. Scale bars 10 μm. […] Cells expressing FRB-NFAST and FKBP-CFASTn (n=10 or 11) were treated with rapamycin to form split-FAST11 and split-FAST10. Cells expressing FAST were used as control. HMBR concentration was 10 μM. Excitation at 488 nm at 6.3 kW/cm2. Six cells were analyzed per condition. […] Scale bars 20 μm. […] Scale bars 20 μm.
Photobleaching measurements for HMBR were carried out at 10 μM fluorogen at 488 nm excitation (4.6 kW/cm2, […] pixel dwell); FAST was used as a control. Samples were imaged continuously for 1000 images at a 1 frame per second frequency.

The next data set concerns the target T1, NFAST (Halorhodospira halophila, UniProt P16113, C69G/D97P/F96I/M100R/Q99S/T101G/T95M/Y94W/Y98T).
T1 construct: His tag (N); made in house; host or cells: Rosetta (DE3) pLysS E. coli
Briefly: Thermodynamic dissociation constants of NFAST:CFASTn couples in the presence of fluorogen (plate reader, one-site specific binding fit). To be noted: synthetic CFASTn peptide and purified NFAST. The protocol:
In one embodiment, the thermodynamic dissociation constant KD is determined by spectrofluorometric titration as described in the Examples.
Expression vectors were transformed in Rosetta (DE3) pLysS E. coli (NEW ENGLAND BIOLABS®). Cells were grown at 37° C. in LB medium complemented with 50 μg/mL kanamycin and 34 μg/mL chloramphenicol to OD600 nm 0.6. Expression was induced for 4 hours by adding isopropyl β-D-1-thiogalactopyranoside (IPTG) to a final concentration of 1 mM. Cells were harvested by centrifugation (4,000×g for 20 min at 4° C.) and frozen. The cell pellet was resuspended in lysis buffer (phosphate buffer 50 mM, NaCl 150 mM, MgCl2 2.5 mM, protease inhibitor, DNase, pH 7.4) and sonicated (5 min at 20% of amplitude, 3 sec on, 1 sec off). The lysate was incubated for 2 hours at 4° C. to allow DNA digestion by DNase. Cellular fragments were removed by centrifugation (9200×g for 1 hour at 4° C.). The supernatant was incubated overnight at 4° C. under gentle agitation with Ni-NTA agarose beads in phosphate buffered saline (PBS) (sodium phosphate 50 mM, NaCl 150 mM, pH 7.4) complemented with 10 mM imidazole. Beads were washed with 20 volumes of PBS containing 20 mM imidazole, and with 5 volumes of PBS complemented with 40 mM imidazole. His-tagged proteins were eluted with 5 volumes of PBS complemented with 0.5 M imidazole. The buffer was exchanged to PBS (50 mM phosphate, 150 mM NaCl, pH 7.4) using PD-10 desalting columns.
Thermodynamic dissociation constants for NFAST:CFASTn (n=8 to 11) couples were determined using peptides synthesized for CFASTn (n=8 to 11) and recombinantly purified NFAST. The affinity for NFAST:CFAST11 in the presence of 10 μM HMBR was determined independently from a minimum of three different purifications of NFAST. NFAST:CFAST11 was then run in parallel as an internal control for the determination of the other NFAST-CFAST combinations, which were all performed on the same day with the same preparation of NFAST. Thermodynamic dissociation constants were determined with a Spark 10M plate reader (TECAN®) and fit in Prism 6 to a one-site specific binding model.

The mark [1] stands for this setting: KD of NFAST-CFASTn 10 μM HBR-3,5-DOM, in the presence of 10 μM HBR-3,5-DOM.
The mark [2] stands for this setting: KD of NFAST-CFASTn 10 μM HMBR, in the presence of 10 μM HMBR.

T1 sequence (P16113 1-114 C69G/Y94W/T95M/F96I/D97P/Y98T/Q99S/M100R/T101G): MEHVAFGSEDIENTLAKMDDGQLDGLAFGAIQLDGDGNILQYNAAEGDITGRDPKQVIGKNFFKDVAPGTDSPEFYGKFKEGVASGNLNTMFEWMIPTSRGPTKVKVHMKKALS

As usually defined, the Kd is the constant that tells how readily two partners part at equilibrium. With Ac-GDSYWVFVKR-NH2 [CFAST10], in the data set on HEK 293T cells, the “relative in-cell brightness (fluorescence observed) by C-terminal fragment” value (“relative in-cell brightness” for short) is “lower”. Moreover, the “photostability of split-FAST:fluorogen assembly in cells” value in the data set on HEK293 cells is “as photostable as the regular FAST:fluorogen complex”. Besides, the values for the Kd on NFAST (setting [1]) and on NFAST (setting [2]) were 6.2 ± 0.5 µM and 0.95 ± 0.08 µM, respectively.

Turning to Ac-GDSYWVFVK-NH2 [CFAST9], the “relative in-cell brightness” value with HEK 293T cells is reported as “lowest”. In addition, the figures for the Kd on NFAST (setting [1]) and on NFAST (setting [2]) were 25 ± 1 µM and 5.7 ± 0.06 µM, respectively.

Take Ac-GDSYWVFVKRV-NH2 [CFAST11]: the “relative in-cell brightness” value in the data set on HEK 293T cells is “highest”. Moreover, the “photostability of split-FAST:fluorogen assembly in cells” value in the data set with HEK293 cells was “as photostable as the regular FAST:fluorogen complex”. For the same molecule, the Kd on NFAST (setting [1]) was 1.4 ± 0.2 µM; on NFAST (setting [2]), 0.21 ± 0.05 µM.

Regarding Ac-GDSYWVFV-NH2 [CFAST8], on NFAST (setting [2]), the Kd worked out at 21 ± 4 µM.

B1: iFAST: FAST variant with isoleucine at position 107 (SEQ ID NO: 16); its Nter fragment is SEQ ID NO: 30 (protein)
chain: MEHVAFGSEDIENTLAKMDDGQLDGLAFGAIQLDGDGNILQYNAAEGDITGRDPKQVIGKNFFKDVAPGTDSPEFYGKFKEGVASGNLNTMFEWMIPTSRGPTKVKIHMKKALSGDSYWVFVKRV
modifications: functional PYP
Regarding B1, the “fluorescence of the Nter fragment of iFAST + CFAST compared with NFAST + CFAST” value with HEK 293T cells (HEK 293T cells) is reported as “similar”.
